Reference: publication PMC5218480 (PLoS ONE, 2017)

Tested on: MV-4-11 cells
Test: Gene expression microarray analysis (Affymetrix PrimeView) and GSEA
Assay type: cell-based, human
Parameters: RFU PODN (11730768_x_at) / Fold change /veh PODN (11730768_x_at) / RFU LINC00158 (11744669_a_at) / Fold change /veh LINC00158 (11744669_a_at) / RFU DUSP10 (11751237_a_at) / Fold change /veh DUSP10 (11751237_a_at) / RFU ID3 (11757404_x_at) / Fold change /veh ID3 (11757404_x_at) / RFU PLEKHG5 (11737974_s_at) / Fold change /veh PLEKHG5 (11737974_s_at) / RFU LRRC4B (11730491_at) / Fold change /veh LRRC4B (11730491_at) / RFU GIMAP4 (11747438_a_at) / Fold change /veh GIMAP4 (11747438_a_at) / RFU KRT8 (11758183_x_at) / Fold change /veh KRT8 (11758183_x_at) / RFU CNN1 (11734310_a_at) / Fold change /veh CNN1 (11734310_a_at) / RFU VPS37D (11726825_at) / Fold change /veh VPS37D (11726825_at) / RFU C10orf10 (11716522_x_at) / Fold change /veh C10orf10 (11716522_x_at) / RFU KIR2DL2 /// KIR2DL4 /// KIR2DL5A /// KIR2DL5B /// KIR2DS1 /// KIR2DS2 /// KIR2DS3 /// KIR2DS4 /// KIR3DL3 /// KIR3DL3 /// KIR3DS1 (11738374_at) / Fold change /veh KIR2DL2 /// KIR2DL4 /// KIR2DL5A /// KIR2DL5B /// KIR2DS1 /// KIR2DS2 /// KIR2DS3 /// KIR2DS4 /// KIR3DL3 /// KIR3DL3 /// KIR3DS1 (11738374_at) / RFU C1QL1 (11718748_at) / Fold change /veh C1QL1 (11718748_at) / RFU TMPRSS4 (11747572_a_at) / Fold change /veh TMPRSS4 (11747572_a_at) / RFU HAMP (11756126_x_at) / Fold change /veh HAMP (11756126_x_at) / RFU RNFT2 (11725882_a_at) / Fold change /veh RNFT2 (11725882_a_at) / RFU NR4A2 (11747474_a_at) / Fold change /veh NR4A2 (11747474_a_at) / RFU ABCC12 (11746883_a_at) / Fold change /veh ABCC12 (11746883_a_at) / RFU TMEM136 (11760407_x_at) / Fold change /veh TMEM136 (11760407_x_at) / RFU CLDN22 /// WWC2 (11732394_at) / Fold change /veh CLDN22 /// WWC2 (11732394_at) / RFU HLA-DPB1 (11760878_x_at) / Fold change /veh HLA-DPB1 (11760878_x_at) / RFU SPINT1 (11716480_a_at) / Fold change /veh SPINT1 (11716480_a_at) / RFU GAP43 (11754022_s_at) / Fold change /veh GAP43 (11754022_s_at) / RFU A4GNT (11735810_at) / Fold change /veh A4GNT (11735810_at) / RFU PRB3 (11715151_x_at) / Fold change /veh PRB3 (11715151_x_at) / RFU TUBB4B (11761932_at) / Fold change /veh TUBB4B (11761932_at) / RFU CAPN14 (11732068_a_at) / Fold change /veh CAPN14 (11732068_a_at) / RFU TMCC2 (11721928_a_at) / Fold change /veh TMCC2 (11721928_a_at) / RFU IRGQ (11745062_a_at) / Fold change /veh IRGQ (11745062_a_at) / RFU FAM174B (11720279_a_at) / Fold change /veh FAM174B (11720279_a_at) / RFU TMPRSS4 (11748680_a_at) / Fold change /veh TMPRSS4 (11748680_a_at) / RFU FAM212B (11763350_a_at) / Fold change /veh FAM212B (11763350_a_at) / RFU PLEKHG5 (11743358_a_at) / Fold change /veh PLEKHG5 (11743358_a_at) / RFU ZSCAN30 (11745921_a_at) / Fold change /veh ZSCAN30 (11745921_a_at) / RFU CMKLR1 (11741424_a_at) / Fold change /veh CMKLR1 (11741424_a_at) / RFU LOC101060620 /// MAPK8IP1 (11723275_at) / Fold change /veh LOC101060620 /// MAPK8IP1 (11723275_at) / RFU SPTSSB (11747773_x_at) / Fold change /veh SPTSSB (11747773_x_at) / RFU PRSS12 (11739890_at) / Fold change /veh PRSS12 (11739890_at) / RFU BIN1 (11741810_x_at) / Fold change /veh BIN1 (11741810_x_at) / RFU WNT11 (11732464_a_at) / Fold change /veh WNT11 (11732464_a_at) / RFU C10orf10 (11716521_a_at) / Fold change /veh C10orf10 (11716521_a_at) / RFU C5orf56 (11738089_at) / Fold change /veh C5orf56 (11738089_at) / RFU CYB561 (11721691_x_at) / Fold change /veh CYB561 (11721691_x_at) / RFU ANKRD19P (11752326_a_at) / Fold change /veh ANKRD19P (11752326_a_at) / RFU OR2T12 /// OR2T33 /// OR2T8 (11738714_s_at) / Fold change /veh OR2T12 /// OR2T33 /// OR2T8 (11738714_s_at) / RFU VCAN (11748164_a_at) / Fold change /veh VCAN (11748164_a_at) / RFU JSRP1 (11732532_at) / Fold change /veh JSRP1 (11732532_at) / RFU KRTAP10-11 (11738290_x_at) / Fold change /veh KRTAP10-11 (11738290_x_at) / RFU MYO3A (11730013_a_at) / Fold change /veh MYO3A (11730013_a_at) / RFU EBF3 (11725865_a_at) / Fold change /veh EBF3 (11725865_a_at) / RFU CAMK2N1 (11719241_x_at) / Fold change /veh CAMK2N1 (11719241_x_at) / RFU C5orf56 (11738088_a_at) / Fold change /veh C5orf56 (11738088_a_at) / RFU OLFML3 (11715873_a_at) / Fold change /veh OLFML3 (11715873_a_at) / RFU LOC100653217 /// NTM (11731650_a_at) / Fold change /veh LOC100653217 /// NTM (11731650_a_at) / RFU MAPK11 (11762145_a_at) / Fold change /veh MAPK11 (11762145_a_at) / RFU FIZ1 (11724087_x_at) / Fold change /veh FIZ1 (11724087_x_at) / RFU OASL (11726364_x_at) / Fold change /veh OASL (11726364_x_at) / RFU SOX15 (11748057_x_at) / Fold change /veh SOX15 (11748057_x_at) / RFU CD79A (11719716_a_at) / Fold change /veh CD79A (11719716_a_at) / RFU HIST1H1D (11736915_at) / Fold change /veh HIST1H1D (11736915_at) / RFU CASKIN2 (11723855_a_at) / Fold change /veh CASKIN2 (11723855_a_at) / RFU LOC730098 (11760151_x_at) / Fold change /veh LOC730098 (11760151_x_at) / RFU OR4N2 (11742367_at) / Fold change /veh OR4N2 (11742367_at) / RFU PRRT2 (11749266_a_at) / Fold change /veh PRRT2 (11749266_a_at) / RFU SNX32 (11753110_a_at) / Fold change /veh SNX32 (11753110_a_at) / RFU CDHR5 (11726645_a_at) / Fold change /veh CDHR5 (11726645_a_at) / RFU RCAN1 (11760418_a_at) / Fold change /veh RCAN1 (11760418_a_at) / RFU FAM167A (11723789_a_at) / Fold change /veh FAM167A (11723789_a_at) / RFU FAM26E (11764081_at) / Fold change /veh FAM26E (11764081_at) / RFU ISYNA1 (11749810_s_at) / Fold change /veh ISYNA1 (11749810_s_at) / RFU ACY1 (11761880_at) / Fold change /veh ACY1 (11761880_at) / RFU 11764098_at / Fold change /veh 11764098_at / RFU SAMD14 (11745864_x_at) / Fold change /veh SAMD14 (11745864_x_at) / RFU NPB (11741838_a_at) / Fold change /veh NPB (11741838_a_at) / RFU TMPRSS6 (11731388_a_at) / Fold change /veh TMPRSS6 (11731388_a_at) / RFU KRTAP10-2 (11738614_at) / Fold change /veh KRTAP10-2 (11738614_at) / RFU ARHGAP8 /// PRR5-ARHGAP8 (11727945_x_at) / Fold change /veh ARHGAP8 /// PRR5-ARHGAP8 (11727945_x_at) / RFU KRTAP5-7 /// NADSYN1 (11734609_at) / Fold change /veh KRTAP5-7 /// NADSYN1 (11734609_at) / RFU RASL12 (11751679_a_at) / Fold change /veh RASL12 (11751679_a_at) / RFU CDKN2B (11736163_a_at) / Fold change /veh CDKN2B (11736163_a_at) / RFU PRF1 (11729649_at) / Fold change /veh PRF1 (11729649_at) / RFU, ZNF638 /// ZNF638-IT1 / Fold change vs veh, ZNF638 /// ZNF638-IT1 / RFU, PANK3 / Fold change vs veh, PANK3 / RFU, SH3YL1 / Fold change vs veh, SH3YL1 / RFU, ZEB2 / Fold change vs veh, ZEB2 / RFU, NRIP1 / Fold change vs veh, NRIP1 / RFU, PTTG1IP / Fold change vs veh, PTTG1IP / RFU, CAPN2 / Fold change vs veh, CAPN2 / RFU, MED14 / Fold change vs veh, MED14 / RFU, SNORA58 / Fold change vs veh, SNORA58 / RFU, C1orf63 / Fold change vs veh, C1orf63 / RFU, LRRFIP1 / Fold change vs veh, LRRFIP1 / RFU, NDUFAF7 / Fold change vs veh, NDUFAF7 / RFU, SLC12A2 / Fold change vs veh, SLC12A2 / RFU, IBTK / Fold change vs veh, IBTK / RFU, ESF1 / Fold change vs veh, ESF1 / Fold change vs veh, TMEM50B / RFU, TAOK1 / Fold change vs veh, TAOK1 / RFU, ACBD3 / Fold change vs veh, ACBD3 / RFU, TMA16 / Fold change vs veh, TMA16 / RFU, RWDD3 / Fold change vs veh, RWDD3 / RFU, BCAT1 / Fold change vs veh, BCAT1 / RFU, EDEM3 / Fold change vs veh, EDEM3 / RFU, TMEM33 / Fold change vs veh, TMEM33 / RFU, WDR75 / Fold change vs veh, WDR75 / RFU, AHCTF1 / Fold change vs veh, AHCTF1 / RFU, TFRC / Fold change vs veh, TFRC / RFU, ZDHHC17 / Fold change vs veh, ZDHHC17 / RFU, NOM1 / Fold change vs veh, NOM1 / RFU, ARL8B / Fold change vs veh, ARL8B / RFU, ZBTB11 / Fold change vs veh, ZBTB11 / RFU, TAMM41 / Fold change vs veh, TAMM41 / RFU, KIAA1704 /// LOC100996395 / Fold change vs veh, KIAA1704 /// LOC100996395 / RFU, ING1 / Fold change vs veh, ING1 / RFU, TRMT61B / Fold change vs veh, TRMT61B / RFU, FUBP3 / Fold change vs veh, FUBP3 / RFU, TP53 / Fold change vs veh, TP53 / RFU, TNKS2 / Fold change vs veh, TNKS2 / RFU, ZFP14 / Fold change vs veh, ZFP14 / RFU, ACTR2 / Fold change vs veh, ACTR2 / RFU, PPP3R1 / Fold change vs veh, PPP3R1 / RFU, PIK3R1 / Fold change vs veh, PIK3R1 / RFU, HNRNPA1 / Fold change vs veh, HNRNPA1 / RFU, RNF170 / Fold change vs veh, RNF170 / RFU, ZNF28 / Fold change vs veh, ZNF28 / RFU, RNGTT / Fold change vs veh, RNGTT / RFU, OGT / Fold change vs veh, OGT / RFU, BRD1 / Fold change vs veh, BRD1 / RFU, MARS / Fold change vs veh, MARS / RFU, ZNF655 / Fold change vs veh, ZNF655 / RFU, FAHD1 / Fold change vs veh, FAHD1 / RFU, BDP1 / Fold change vs veh, BDP1 / RFU, LRRCC1 / Fold change vs veh, LRRCC1 / RFU, ARID1A / Fold change vs veh, ARID1A / RFU, ZNF146 / Fold change vs veh, ZNF146 / RFU, ZNF330 / Fold change vs veh, ZNF330 / RFU, GPN3 / Fold change vs veh, GPN3 / RFU, C9orf123 / Fold change vs veh, C9orf123 / RFU, N4BP2L2 / Fold change vs veh, N4BP2L2 / RFU, ARFIP1 / Fold change vs veh, ARFIP1 / RFU, FAM179B / Fold change vs veh, FAM179B / RFU, BCL10 / Fold change vs veh, BCL10 / RFU, UHRF1BP1L / Fold change vs veh, UHRF1BP1L / RFU, BET1 / Fold change vs veh, BET1 / RFU, CNOT2 / Fold change vs veh, CNOT2 / RFU, ZNF268 / Fold change vs veh, ZNF268 / Fold change vs veh, ZNF507 / RFU, DGCR2 / Fold change vs veh, DGCR2 / RFU, WDSUB1 / Fold change vs veh, WDSUB1 / Fold change vs veh, HSP90B1 /// MIR3652 / RFU, ADSS / Fold change vs veh, ADSS / RFU, GK / Fold change vs veh, GK / RFU, ZNF148 / Fold change vs veh, ZNF148 / RFU, TAF9 / Fold change vs veh, TAF9 / RFU, SLC1A5 / Fold change vs veh, SLC1A5 / RFU, SLMO2 / Fold change vs veh, SLMO2 / RFU, ABCC4 / Fold change vs veh, ABCC4 / RFU, LOC101060439 /// RAP1B / Fold change vs veh, LOC101060439 /// RAP1B / RFU, RFX7 / Fold change vs veh, RFX7 / RFU, GTPBP10 / Fold change vs veh, GTPBP10 / RFU, CNEP1R1 / Fold change vs veh, CNEP1R1 / RFU, BIVM-ERCC5 /// ERCC5 / Fold change vs veh, BIVM-ERCC5 /// ERCC5 / RFU, ILF3 / Fold change vs veh, ILF3 / RFU 11762660_at / Fold change /veh 11762660_at / RFU VCAN (11757783_s_at) / Fold change /veh VCAN (11757783_s_at) / RFU DDX43 (11728927_at) / Fold change /veh DDX43 (11728927_at) / RFU KRT8 (11758188_x_at) / Fold change /veh KRT8 (11758188_x_at) / RFU NKD1 (11759106_at) / Fold change /veh NKD1 (11759106_at) / RFU SRD5A1 (11742802_a_at) / Fold change /veh SRD5A1 (11742802_a_at) / RFU TPSAB1 /// TPSB2 (11721975_s_at) / Fold change /veh TPSAB1 /// TPSB2 (11721975_s_at) / RFU GSTM3 (11746129_a_at) / Fold change /veh GSTM3 (11746129_a_at) / RFU IL23R (11737362_x_at) / Fold change /veh IL23R (11737362_x_at) / RFU TMEM51 (11727254_a_at) / Fold change /veh TMEM51 (11727254_a_at) / RFU PIWIL2 (11732686_x_at) / Fold change /veh PIWIL2 (11732686_x_at) / RFU ORM1 (11744905_x_at) / Fold change /veh ORM1 (11744905_x_at) / RFU CCDC152 (11743942_at) / Fold change /veh CCDC152 (11743942_at) / RFU ECM1 (11717891_a_at) / Fold change /veh ECM1 (11717891_a_at) / RFU IL23R (11748794_a_at) / Fold change /veh IL23R (11748794_a_at) / RFU TNFAIP8L3 (11732012_x_at) / Fold change /veh TNFAIP8L3 (11732012_x_at) / RFU MBOAT4 (11741988_at) / Fold change /veh MBOAT4 (11741988_at) / RFU 11764193_at / Fold change /veh 11764193_at / RFU TMEM53 (11763286_at) / Fold change /veh TMEM53 (11763286_at) / RFU MAGEB2 (11727129_at) / Fold change /veh MAGEB2 (11727129_at) / RFU TMEM200A (11744735_a_at) / Fold change /veh TMEM200A (11744735_a_at) / RFU CCDC152 (11751479_a_at) / Fold change /veh CCDC152 (11751479_a_at) / RFU FAM211A (11726209_a_at) / Fold change /veh FAM211A (11726209_a_at) / RFU RGS16 (11746705_a_at) / Fold change /veh RGS16 (11746705_a_at) / RFU VCAN (11755009_s_at) / Fold change /veh VCAN (11755009_s_at) / RFU RHOB (11743442_s_at) / Fold change /veh RHOB (11743442_s_at) / RFU RGS16 (11720943_a_at) / Fold change /veh RGS16 (11720943_a_at) / RFU RGS16 (11720944_at) / Fold change /veh RGS16 (11720944_at) / RFU, VPS4B / Fold change vs veh, VPS4B / RFU, CREB1 / Fold change vs veh, CREB1 / RFU, DNAJC13 / Fold change vs veh, DNAJC13 / RFU, GNAQ / Fold change vs veh, GNAQ / RFU, CDK5R1 / Fold change vs veh, CDK5R1 / RFU, ZRANB3 / Fold change vs veh, ZRANB3 / RFU, CUL4A / Fold change vs veh, CUL4A / RFU, CCNY / Fold change vs veh, CCNY / RFU, UFL1 / Fold change vs veh, UFL1 / RFU, COG3 / Fold change vs veh, COG3 / RFU, DIAPH2 / Fold change vs veh, DIAPH2 / RFU, SKA2 / Fold change vs veh, SKA2 / RFU, AFF3 / Fold change vs veh, AFF3 / RFU, LMF1 / Fold change vs veh, LMF1 / RFU, IPO11 / Fold change vs veh, IPO11 / RFU, DFFB / Fold change vs veh, DFFB / RFU, FOXP1 / Fold change vs veh, FOXP1 / RFU, CARD8 / Fold change vs veh, CARD8 / RFU, STRN3 / Fold change vs veh, STRN3 / RFU, ADK / Fold change vs veh, ADK / RFU, RASSF2 / Fold change vs veh, RASSF2 / RFU, WIPF1 / Fold change vs veh, WIPF1 / RFU, LARP1B / Fold change vs veh, LARP1B / RFU, RASA1 / Fold change vs veh, RASA1 / RFU, RB1 / Fold change vs veh, RB1 / RFU, PPFIA1 / Fold change vs veh, PPFIA1 / RFU, MAT2A / Fold change vs veh, MAT2A / RFU, CCT5 / Fold change vs veh, CCT5 / RFU, WDR92 / Fold change vs veh, WDR92 / RFU, CUX1 / Fold change vs veh, CUX1 / RFU, TTC7A / Fold change vs veh, TTC7A / RFU, TMEM135 / Fold change vs veh, TMEM135 / RFU, DEPTOR / Fold change vs veh, DEPTOR / RFU, CPM / Fold change vs veh, CPM / RFU, DNAJB6 / Fold change vs veh, DNAJB6 / RFU, CACNA2D3 / Fold change vs veh, CACNA2D3 / RFU, DTX4 / Fold change vs veh, DTX4 / RFU, TFCP2 / Fold change vs veh, TFCP2 / RFU, GMCL1 /// GMCL1P1 / Fold change vs veh, GMCL1 /// GMCL1P1 / RFU, AEBP2 / Fold change vs veh, AEBP2 / RFU, SNHG1 /// SNORD22 /// SNORD25 /// SNORD26 /// SNORD27 /// SNORD28 /// SNORD29 /// SNORD31 / Fold change vs veh, SNHG1 /// SNORD22 /// SNORD25 /// SNORD26 /// SNORD27 /// SNORD28 /// SNORD29 /// SNORD31 / Fold change (Aza/veh), C12orf56 (ProbeSet 11735607_a_at) / Fold change (ACY-1035/veh), C12orf56 (ProbeSet 11735607_a_at) / Fold change (Aza/veh), FGFR1OP (ProbeSet 11751329_s_at) / Fold change (ACY-1035/veh), FGFR1OP (ProbeSet 11751329_s_at) / Fold change (Aza/veh), VPS36 (ProbeSet 11739960_a_at) / Fold change (ACY-1035/veh), VPS36 (ProbeSet 11739960_a_at) / RFU SYPL1 (11715823_x_at) / Fold change /veh SYPL1 (11715823_x_at) / RFU IGFBP7 (11715501_s_at) / Fold change /veh IGFBP7 (11715501_s_at) / RFU REEP3 (11722064_at) / Fold change /veh REEP3 (11722064_at) / RFU IGLL1 (11728026_x_at) / Fold change /veh IGLL1 (11728026_x_at): dose or concentration left out as unconfirmed
Details: ProbeSet 11743510_at; LIST D

Compound: Nc1ccc(-c2cccs2)cc1NC(=O)c1ccc2c(c1)cc(C1CC1)n2CCN1CCOCC1 [ACY-1035]
- RFU, UFL1: 325.04 RFU
